This passage reports IC50 results from patent US5155103A, “Methods of using new thieno-triazole-1,4-diazepino-2-carboxylic acid amides” (Boehringer Ingelheim GmbH, priority 1985, dated 1992).

For the experiment, the system named is human thrombocytes (PAF-induced aggregation). Briefly: inhibition of PAF-induced aggregation of human thrombocytes in vitro. The class given is cell-based. As for the experimental part:
In order to determine the PAF-antagonistic effect of substances the PAF-induced aggregation of human thrombocytes in vitro is used. To obtain thrombocyte-rich plasma (TRP), blood is taken from an uncongested vein using a plastic syringe containing 3.8% sodium citrate solution. The ratio of sodium citrate solution to blood is 1:9. After careful mixing, the citrated blood is centrifuged for 20 minutes (150×g, 1200 rpm). The thrombocyte aggregation is measured using the method developed by Born and Cross (G. V. R. Born and M. J. Cross, J. Physiol. 168, 178 (1963)), PAF being added to the TRP with constant stirring to initiate aggregation.
The test substance is added 2 to 3 minutes before the aggregation is induced in a volume of 10 μl. The solvent used is either distilled water, ethanol and/or dimethylsulfoxide. Control mixtures are given corresponding volumes of these solvents. After the initial absorption has been recorded (2 to 3 minutes) aggregation is induced with PAF (5×10^-8 M).
To assess the effects of substances, the maximum of the first aggregation wave is used. The maximum absorption rate induced by PAF (=maximum aggregation×100%) is tested simultaneously in a parallel mixture (=control mixture in one of the channels of the 2-channel aggregometer) with each test mixture (second channel) and used as the 100% value.
The aggregation value achieved under the influence of the test substance is given as 100%.
Each test substance is investigated at concentrations of 10^-3 to 10^-8 M with a random test scope of n=4 for any inhibiting effect on the PAF-induced thrombocyte aggregation. Then a concentration-activity curve is drawn up using 3 concentrations and the IC50 is determined (concentration at 50% inhibition of aggregation).

The mark [1] stands for this setting: Table B, PAF 5×10^-8 M, human thrombocyte-rich plasma, read-out: PAF-Antag. IC50.
[2] abbreviates: Homo sapiens, unit inferred, read-out: IC50.

Where two headings read alike, the source gives them in different places.

The IC50 is the point on the concentration scale where inhibition reaches its midpoint.

As for `Cc1nnc2n1-c1sc(Br)cc1C(c1ccccc1Cl)=NC2` [Brotizolam, reference compound], the half-inhibitory concentration (IC50) under setting [1] stood at 500 nM.

For the compound `CCc1cc2c(s1)-n1c(C)nnc1CN=C2c1ccccc1Cl` [Etizolam, reference compound], the IC50 under setting [1] turned out to be 500 nM.

Consider `Cc1nnc2n1-c1sc(CCC(=O)N3CCOCC3)cc1C(c1ccccc1Cl)=NC2` [Example 1, 2-[4-(2-Chlorophenyl)-9-methyl-6H-thieno[3,2-f][1,2,4]-triazolo[4,3-a][1,4]diazepin-2-yl]-ethane-1-carboxylic acid morpholide], for which the half-maximal inhibitory concentration (IC50) reads like this: under setting [2], 170 nM; under setting [1], 170 nM. Turning to `O=C(CCc1cc2c(s1)-n1c(nnc1C1CC1)CN=C2c1ccccc1Cl)N1CCOCC1` [Example 2], the IC50 under setting [1] came to 330 nM. For the compound `Cc1nnc2n1-c1sc(C(=O)N3CCOCC3)cc1C(c1ccccc1Cl)=NC2` [Example 3, [4-(2-Chlorophenyl)-9-methyl-6H-thieno[3,2-f][1,2,4]triazolo-[4,3-a][1,4]diazepin-2-yl]-carboxylic acid morpholide], under setting [1], the IC50 was 710 nM. Consider `Cc1nnc2n1-c1sc(C(N)=O)cc1C(c1ccccc1Cl)=NC2` [Example 4, [4-(2-Chlorophenyl)-9-methyl-6H-thieno[3,2-f][1,2,4]triazolo-[4,3-a][1,4]diazepin-2-yl]-carboxylic acid amide], for which the IC50 under setting [1] worked out at 8300 nM. As to `CCN(CC)C(=O)CCc1cc2c(s1)-n1c(C)nnc1CN=C2c1ccccc1Cl` [Example 5, 2-[4-(2-Chlorophenyl)-9-methyl-6H-thieno[3,2-f][1,2,4]-triazolo[4,3-a][1,4]diazepin-2-yl]-ethane-1-carboxylic acid diethylamide], the IC50 by setting is: under setting [2], 700 nM; under setting [1], 720 nM. For the compound `Cc1nnc2n1-c1sc(CC(=O)N3CCOCC3)cc1C(c1ccccc1Cl)=NC2` [Example 6, [4-(2-Chlorophenyl)-9-methyl-6H-thieno[3,2-f][1,2,4]triazolo-[4,3-a][1,4]-diazepin-2-yl]-methane carboxylic acid morpholide], the IC50 under setting [1] stood at 1300 nM. For `Cc1nnc2n1-c1sc(CCCC(=O)N3CCOCC3)cc1C(c1ccccc1Cl)=NC2` [Example 7, 3-[4-(2-Chlorophenyl)-9-methyl-6H-thieno[3,2-f][1,2,4]-triazolo-[4,3-a][1,4]-diazepin-2-yl]-propane-1-carboxylic acid morpholide], the IC50 under setting [1] amounted to 850 nM. With `Cc1nnc2n1-c1sc(CCCCC(=O)N3CCOCC3)cc1C(c1ccccc1Cl)=NC2` [Example 8], under setting [1], the 50% inhibitory concentration (IC50) worked out at 870 nM. For the compound `O=C(CCc1cc2c(s1)-n1c(Br)nnc1CN=C2c1ccccc1Cl)N1CCOCC1` [Example 9], the IC50 under setting [1] turned out to be 470 nM. The same measure, in the same setting: with `COc1nnc2n1-c1sc(CCC(=O)N3CCOCC3)cc1C(c1ccccc1Cl)=NC2` [Example 10, 2-[4(2-Chlorophenyl)-9-methoxy-6H-thieno[3,2-f][1,2,4]-triazolo-[4,3-a][1,4]-diazepin-2-yl]-ethane-1-carboxylic acid morpholide] the figure was 200 nM. For the compound `CNC(=O)CCc1cc2c(s1)-n1c(C)nnc1CN=C2c1ccccc1Cl` [Example 12, 2-[4-(2-Chlorophenyl)-9-methyl-6H-thieno[3,2-f][1,2,4]-triazolo[4,3-a][1,4]diazepin-2-yl]-ethane-1-carboxylic acid methylamide], under setting [1], the IC50 amounted to 350 nM.

Regarding `Cc1nnc2n1-c1sc(CCC(=O)NC(C)C)cc1C(c1ccccc1Cl)=NC2` [Example 13, 2-[4-(2-Chlorophenyl)-9-methyl-6H-thieno[3,2-f][1,2,4]-triazolo[4,3-a][1,4]diazepin-2-yl]-ethane-1-carboxylic acid isopropylamide], the IC50 under setting [1] was found to be 1540 nM. Take `Cc1nnc2n1-c1sc(CCC(=O)N(C)C)cc1C(c1ccccc1Cl)=NC2` [Example 14, 2-[4-(2-Chlorophenyl)-9-methyl-6H-thieno[3,2-f][1,2,4]-triazolo[4,3-a][1,4]diazepin-2-yl]-ethane-1-carboxylic acid dimethylamide]: the IC50 under setting [1] came out at 2200 nM. On the same count and under the same terms, with `Cc1nnc2n1-c1sc(CCC(=O)N3CCCC3)cc1C(c1ccccc1Cl)=NC2` [Example 15, 2-[4-(2-Chlorophenyl)-9-methyl-6H-thieno[3,2-f][1,2,4]-triazolo[4,3-a][1,4]diazepin-2-yl]-ethane-1-carboxylic acid pyrrolidide] the figure was 380 nM.

As to `Cc1nnc2n1-c1sc(CCC(=O)N3CCCCC3)cc1C(c1ccccc1Cl)=NC2` [Example 16, 2-[4-(2-Chlorophenyl)-9-methyl-6H-thieno[3,2-f][1,2,4]-triazolo[4,3-a][1,4]diazepin-2-yl]-ethane-1-carboxylic acid piperidide], the IC50 under setting [1] was 1330 nM.

As to `Cc1nnc2n1-c1sc(CCC(=O)N3CCN(C)CC3)cc1C(c1ccccc1Cl)=NC2` [Example 17, 2-[4-(2-Chlorophenyl)-9-methyl-6H-thieno[3,2-f][1,2,4]-triazolo[4,3-a][1,4]diazepin-2-yl]-ethane-1-carboxylic acid N'-methyl-piperazide], under setting [1], the IC50 amounted to 900 nM. Same read-out and setting: with `CCN(CC)C(=O)CCc1cc2c(s1)-n1c(nnc1C1CC1)CN=C2c1ccccc1Cl` [Example 18, 2-[4-(2-Chlorophenyl)-9-cyclopropyl-6H-thieno[3,2-f][1,2,4]triazolo[4,3-a][1,4]diazepin-2-yl]-ethane-1-carboxylic acid diethylamide] the figure was 800 nM; with `O=C(CCc1cc2c(s1)-n1cnnc1CN=C2c1ccccc1Cl)N1CCOCC1` [Example 19, 2-[4-(2-chlorophenyl)-6H-thieno[3,2-f][1,2,4]-triazolo[4,3-a][1,4]-diazepin-2-yl]-ethane-1-carboxylic acid morpholide], 8200 nM; with `Cc1nnc2n1-c1sc(CC(N)=O)cc1C(c1ccccc1Cl)=NC2` [Example 20], 5300 nM. For the compound `Cc1nnc2n1-c1sc(CCC(=O)N(CCO)CCO)cc1C(c1ccccc1Cl)=NC2` [Example 21], the IC50 under setting [1] came to 2900 nM. As for `Cc1nnc2n1-c1sc(CCC(=O)N3CCOCC3)cc1C(c1ccccc1)=NC2` [Example 22, 2-[4-Phenyl-9-methyl-6H-thieno[3,2-f][1,2,4]triazolo-[4,3-a][1,4]diazepin-2-yl]-ethane-1-carboxylic acid morpholide], under setting [1], the IC50 was 540 nM. With `Cc1nnc2n1-c1sc(CCC(=O)NCCO)cc1C(c1ccccc1Cl)=NC2` [Example 23], the IC50 under setting [1] is 750 nM. The same measure, in the same setting: next, `O=C(CCc1cc2c(s1)-n1c(CCl)nnc1CN=C2c1ccccc1Cl)N1CCOCC1` [Example 24]: 1400 nM. Same read-out and setting: with `CCCOc1nnc2n1-c1sc(CCC(=O)N3CCOCC3)cc1C(c1ccccc1Cl)=NC2` [Example 26] the figure was 8100 nM; with `Cc1nnc2n1-c1ccc(Cl)cc1C(c1ccccc1Cl)=NC2` [Triazolam, reference compound], 1400 nM.
